One test concerns Saccharomyces cerevisiae. Put plainly: Inhibition of Saccharomyces cerevisiae alpha-glucosidase at 200 ug/mL using p-nitrophenyl alpha-D-glucoside as substrate by colorimetric assay.
The nature of test [1]: Inhibition of Saccharomyces cerevisiae alpha-glucosidase using p-nitrophenyl alpha-D-glucoside as substrate by colorimetric assay.

The text below walks through data of ChEMBL document CHEMBL4422694, “α-Glucosidase Inhibitory Flavonoids and Oxepinones from the Leaf and Twig Extracts of Desmos cochinchinensis” (J Nat Prod, 2019).

The structures appear in SMILES notation.

What is called inhibition is the change of the read-out against control, counted positive when it falls. As usually defined, the IC50 is the point on the concentration scale where inhibition reaches its midpoint. As for `O=C1C[C@@H](c2ccccc2)Oc2cc(O)cc(O)c21` [PINOCEMBRIN], the inhibition with Saccharomyces cerevisiae was found to be 97.7%. The same compound showed a half-maximal inhibitory concentration (IC50) in test [1] of 4.3 µM.
The corresponding values for `O=C(OC[C@@]1(O)C(=O)C=C[C@@H](OC(=O)c2ccccc2)[C@@H]1O)c1ccccc1` are 98.7% and 71.7 µM.
In the test with Saccharomyces cerevisiae, `COc1cc(O)c2c(=O)cc(-c3ccccc3)oc2c1` [TECHTOCHRYSIN] displayed an inhibition of 90.9%. The half-inhibitory concentration (IC50) in test [1] was found to be 158 µM.
In the case of `C[C@H]1O[C@H](O[C@H]2[C@H](O)[C@@H](O)[C@@H](O[C@H]3[C@H](O)[C@@H](O)C(O)O[C@@H]3CO)O[C@@H]2CO)[C@H](O)[C@@H](O)[C@@H]1N[C@H]1C=C(CO)[C@@H](O)[C@H](O)[C@H]1O` (some centres undefined) [ACARBOSE], 171 µM corresponded to half-maximal inhibition in test [1] (IC50).
`CC(=O)O[C@@H]1C=COC=C(CO)C1=O` yielded an inhibition in the test on Saccharomyces cerevisiae of 92.1%. For the same compound, the 50% inhibitory concentration (IC50) in test [1] came out at 4.9 µM.
For `CC(=O)O[C@@H]1C=COC=C(COC(=O)c2ccccc2)C1=O`, in that order: 95.5% and 3.6 µM.
For `O=c1cc(-c2ccccc2)oc2c(Cc3cc(O)ccc3O)c(O)cc(O)c12`, in that order: 95.8% and 0.9 µM.
The corresponding values for `O=C1C[C@@H](c2ccccc2)Oc2c(Cc3ccccc3O)c(O)c(Cc3ccccc3O)c(O)c21` [DICHAMANETIN] are 99.1% and 0.2 µM.
`CC(=O)OC/C=C\C=C(/CO)COC(=O)c1ccccc1` displayed an inhibition with Saccharomyces cerevisiae of 94%. Moreover, in test [1], half-maximal inhibition (IC50) was put at 139 µM.
For `CC(=O)OC/C=C\C=C(/COC(C)=O)COC(=O)c1ccccc1`, the inhibition in the test on Saccharomyces cerevisiae turned out to be 99.1%. The 50% inhibitory concentration (IC50) in test [1] turned out to be 40.7 µM.
Compound `O=c1cc(-c2ccccc2)oc2c(Cc3cccc(O)c3O)c(O)cc(O)c12` showed an inhibition in the test with Saccharomyces cerevisiae of 96.1%. In test [1], this compound yielded an IC50 of 0.9 µM.
For `O=C1C[C@@H](c2ccccc2)Oc2cc(O)c(Cc3ccccc3O)c(O)c21` [ISOCHAMANETIN], in that order: 93.2% and 2.9 µM.
For `O=C(OCc1ccccc1O)c1ccccc1`, in that order: 97.5% and 4.3 µM.
The corresponding values for `O=c1cc(-c2ccccc2)oc2cc(O)cc(O)c12` [CHRYSIN] are 95.4% and 4.9 µM.
As to `CC(=O)O[C@H]1C(=O)C=COC=C1COC(=O)c1ccccc1` [GRANDIUVARONE A], the inhibition with Saccharomyces cerevisiae is 98.2%. In test [1], this compound yielded an IC50 of 3.1 µM.
